Read-outs that look alike come from different tables or passages of the source.
Legend:
[1] = Pharmacokinetics of XXD ingredients in diabetic rat plasma (LC-MS/MS); assay type: in vivo; details: for shape of plasma concentration-time curve / Tmax: after ig administration of XXD for 12 weeks; for Tmax / AUC(0-t) / Cmax: male, Sprague-Dawley, po; for Tmax: diabetic rat plasma, read-out: time of peak concentrations (converted); for AUC(0-t) / Cmax: rat
Description: Male Sprague-Dawley rats (90−100 g) were purchased from the Shanghai Slac Laboratory Animal Co. (Shanghai, China). The rats were housed in an air-conditioned room at 22–24°C under a 12-h dark/light cycle and were given food and water at libitum. All animal experiments were conducted in accordance with the institutional guidelines for the care and use of laboratory animals at Shanghai University of TCM. After 1-week adaptation, animals were divided into a normal control (NC) group fed a standard diet and a high-fat group received a high-fat diet. After 4 weeks, rats on the high-fat diet were treated with streptozotocin (40 mg/kg, intraperitoneal injection). […] In the clinical practice of TCM, XXD is usually prescribed at a daily dose of 46 g of herbal materials (amount to 12 g extract) for diabetic patient. When this human dose was converted into an animal dose (a person of 60 kg, and a conversion factor of 6.25 between human and rat), it was equivalent to the low dose (1.25 g/kg extract) used in this study. NC and DM were treated with vehicle (normal saline) in a matched volume. All the rats were administered the drugs via intragastric gavage (ig) once a day, for 12 weeks.
The rats treated with XXD for 12 weeks were fasted with free access to water for 12 h before the PK experiments. Blood samples were collected before dosing and at 0, 0.25, 0.5, 1, 2, 4, 6, 12, and 24 h following administration. A validated liquid chromatography-tandem mass spectrometry (LC-MS/MS) method was applied to simultaneously determine the concentration of 11 ingredients (coptisine, jatrorrhizine, berberine, palmatine, baicalin, baicalein, wogonoside, wogonin, rhein, emodin, and aloeemodin) in blood plasma. The plasma concentration-time data were analysed by noncompartmental methods with the WinNonLin software package (Pharsight Corporation, Mountain View, CA, USA) to determine PK parameters.

diabetic nephropathy = details: cited from earlier work
[2] = XXD 1.25 g/kg intragastric gavage for 12 weeks, diabetic rats, plasma, mean ± SD n = 8, read-out: AUC0–24 h
[3] = XXD 1.25 g/kg intragastric gavage for 12 weeks, diabetic rats, plasma, mean ± SD n = 8, read-out: C max
[4] = XXD 2.5 g/kg intragastric gavage for 12 weeks, diabetic rats, plasma, mean ± SD n = 8, read-out: AUC0–24 h
[5] = XXD 2.5 g/kg intragastric gavage for 12 weeks, diabetic rats, plasma, mean ± SD n = 8, read-out: C max

Row | Tmax [1] | AUC(0-t) [1, 2] | Cmax [1, 3] | AUC(0-t) [1, 4] | Cmax [1, 5] | Structure (SMILES) | shape of plasma concentration-time curve ([1]; diabetic rats) | anti-DN effects (diabetic nephropathy) | other results
1 | 10 min | 3460 ± 894 ng·h/mL | 1140 ± 321 ng/mL | 8880 ± 2990 ng·h/mL | 2240 ± 475 ng/mL | COc1c(O[C@@H]2O[C@H](C(=O)O)[C@@H](O)[C@H](O)[C@H]2O)cc(O)c2c(=O)cc(-c3ccccc3)oc12 [Wogonoside, wogonoside] | double peaks |  | 
2 | 10 min | 154 ± 71 ng·h/mL | 47 ± 38 ng/mL | 423 ± 307 ng·h/mL | 149 ± 86 ng/mL | COc1c(O)cc(O)c2c(=O)cc(-c3ccccc3)oc12 [Wogonin, wogonin] |  |  | 
3 |  |  |  |  |  | O=C1c2cccc(O)c2C(=O)c2c(O)cc(CO)cc21 [aloeemodin] |  |  | plasma concentration relative to LLOQ ([1]; at about 0.5–2 h after ig XXD, below the LLOQ at other times): slightly higher than the lower limit of quantification
4 |  |  |  |  |  | Cc1cc(O)c2c(c1)C(=O)c1cc(O)cc(O)c1C2=O [Emodin, emodin] |  | exhibited anti-DN effects | Tmax ([1]; in vivo): 30 min; AUC(0-t) ([1]; in vivo, XXD 1.25 g/kg intragastric gavage for 12 weeks, diabetic rats, plasma, mean ± SD n = 8, read-out: AUC0–24 h): 61 ± 8 ng·h/mL; Cmax ([1]; in vivo, XXD 1.25 g/kg intragastric gavage for 12 weeks, diabetic rats, plasma, mean ± SD n = 8, read-out: C max): 13 ± 7 ng/mL; AUC(0-t) ([1]; in vivo, XXD 2.5 g/kg intragastric gavage for 12 weeks, diabetic rats, plasma, mean ± SD n = 8, read-out: AUC0–24 h): 119 ± 25 ng·h/mL; Cmax ([1]; in vivo, XXD 2.5 g/kg intragastric gavage for 12 weeks, diabetic rats, plasma, mean ± SD n = 8, read-out: C max): 22 ± 9 ng/mL
5 |  |  |  |  |  | COc1cc2c(cc1OC)-c1cc3ccc(OC)c(OC)c3c[n+]1CC2 [Palmatine, palmatine] |  |  | AUC(0-t) ([1]; in vivo, 1.25 g/kg): 113 ± 69 ng·h/mL; Cmax ([1]; in vivo, 1.25 g/kg): 17 ± 13 ng/mL; AUC(0-t) ([1]; in vivo, 2.5 g/kg): 312 ± 197 ng·h/mL; Cmax ([1]; in vivo, 2.5 g/kg): 29 ± 18 ng/mL
6 | 10 min | 1100 ± 216 ng·h/mL | 961 ± 430 ng/mL | 2790 ± 937 ng·h/mL | 1750 ± 514 ng/mL | O=C(O)c1cc(O)c2c(c1)C(=O)c1cccc(O)c1C2=O [Rhein, rhein] |  | exhibited anti-DN effects | renal TGF-β1 protein expression (diabetic nephropathy): downregulate

Row | Structure (SMILES) | Tmax [1] | AUC(0-t) [1, 2] | Cmax [1, 3] | AUC(0-t) [1, 4] | Cmax [1, 5] | shape of plasma concentration-time curve ([1]; diabetic rats) | anti-DN effects (diabetic nephropathy) | other results
7 | O=C(O)[C@H]1O[C@@H](Oc2cc3oc(-c4ccccc4)cc(=O)c3c(O)c2O)[C@H](O)[C@@H](O)[C@@H]1O [Baicalin, baicalin] | 10 min | 4700 ± 1730 ng·h/mL | 1560 ± 570 ng/mL | 16100 ± 9600 ng·h/mL | 4310 ± 1710 ng/mL | double peaks | exhibited anti-DN effects | renal TGF-β1 protein expression (diabetic nephropathy): downregulate
8 | COc1cc2c(cc1O)CC[n+]1cc3c(OC)c(OC)ccc3cc1-2 [Jatrorrhizine, jatrorrhizine] |  | 172 ± 57 ng·h/mL | 14 ± 9 ng/mL | 201 ± 152 ng·h/mL | 21 ± 13 ng/mL | double peaks |  | 

Source: paper PMC3713598, “Renal Protective Role of Xiexin Decoction with Multiple Active Ingredients Involves Inhibition of Inflammation through Downregulation of the Nuclear Factor-κB Pathway in Diabetic Rats” (Evidence-based Complementary and Alternative Medicine : eCAM, 2013)
